According to ChEMBL document CHEMBL1909046, “DrugMatrix in vitro pharmacology data”:

Legend:
[1] = DRUGMATRIX: Tumor Necrosis Factor (TNF), Non-Selective radioligand binding (ligand: [125I] TNF-alpha); format: cell membranes, Membrane; conditions: u-937; Not Active = under 50% inhibition at 10 µM
[2] = DRUGMATRIX: Glutamate, NMDA, Phencyclidine radioligand binding (ligand: [3H] TCP); format: cell membranes, Rattus norvegicus, Wistar, Cerebral cortex, Membrane; conditions: Not Active = under 50% inhibition at 10 µM
[3] = target: T1, Cysteinyl leukotriene receptor 1 (Homo sapiens, UniProt Q9Y271); format: cell membranes, CHO-K1, Membrane; conditions: cho-k1; also: in other assays of this panel Not Active means under 50% inhibition at 10 µM
T1 sequence (Q9Y271 whole entry): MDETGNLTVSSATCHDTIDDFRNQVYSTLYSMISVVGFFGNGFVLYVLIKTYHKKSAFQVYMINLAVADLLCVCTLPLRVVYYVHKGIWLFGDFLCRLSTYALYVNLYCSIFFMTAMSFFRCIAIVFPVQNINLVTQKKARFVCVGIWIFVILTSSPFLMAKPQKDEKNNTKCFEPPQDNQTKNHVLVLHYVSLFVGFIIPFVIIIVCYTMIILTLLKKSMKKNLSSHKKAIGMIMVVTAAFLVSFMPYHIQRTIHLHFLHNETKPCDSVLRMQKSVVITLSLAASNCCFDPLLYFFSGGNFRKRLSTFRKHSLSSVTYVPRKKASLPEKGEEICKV

[4] = target: Platelet-activating factor receptor (Homo sapiens, UniProt P25105); format: tissue-based; also: in other assays of this panel Not Active means under 50% inhibition at 10 µM
Progesterone receptor = target: T2, Progesterone receptor (Bos taurus, UniProt Q690N0); test: DRUGMATRIX: Progesterone radioligand binding (ligand: [3H] R-5020); format: tissue-based, Uterus; conditions: Not Active = under 50% inhibition at 10 µM
T2 sequence (Q690N0 whole entry): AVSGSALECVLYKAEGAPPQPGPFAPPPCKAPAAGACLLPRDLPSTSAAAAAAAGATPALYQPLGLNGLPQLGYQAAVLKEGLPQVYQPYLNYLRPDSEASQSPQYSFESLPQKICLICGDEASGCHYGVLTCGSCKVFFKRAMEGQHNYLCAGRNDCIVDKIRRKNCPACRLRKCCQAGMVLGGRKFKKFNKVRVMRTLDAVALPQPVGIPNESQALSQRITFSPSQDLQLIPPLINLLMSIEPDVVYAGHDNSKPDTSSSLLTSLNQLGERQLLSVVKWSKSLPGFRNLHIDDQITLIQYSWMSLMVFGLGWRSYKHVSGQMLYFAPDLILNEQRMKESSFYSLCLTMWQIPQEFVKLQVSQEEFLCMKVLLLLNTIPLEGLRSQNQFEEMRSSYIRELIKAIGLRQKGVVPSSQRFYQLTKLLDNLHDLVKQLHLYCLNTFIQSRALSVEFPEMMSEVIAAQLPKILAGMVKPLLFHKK

Caspase-1 = target: T3, Caspase-1 (Homo sapiens, UniProt P29466); set-up: species or system Escherichia coli;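 also: Caspase-1 enzyme inhibition assay with a peptide substrate; in other assays of this panel Not Active means under 50% inhibition at 10 µM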
T3 sequence (P29466 whole entry): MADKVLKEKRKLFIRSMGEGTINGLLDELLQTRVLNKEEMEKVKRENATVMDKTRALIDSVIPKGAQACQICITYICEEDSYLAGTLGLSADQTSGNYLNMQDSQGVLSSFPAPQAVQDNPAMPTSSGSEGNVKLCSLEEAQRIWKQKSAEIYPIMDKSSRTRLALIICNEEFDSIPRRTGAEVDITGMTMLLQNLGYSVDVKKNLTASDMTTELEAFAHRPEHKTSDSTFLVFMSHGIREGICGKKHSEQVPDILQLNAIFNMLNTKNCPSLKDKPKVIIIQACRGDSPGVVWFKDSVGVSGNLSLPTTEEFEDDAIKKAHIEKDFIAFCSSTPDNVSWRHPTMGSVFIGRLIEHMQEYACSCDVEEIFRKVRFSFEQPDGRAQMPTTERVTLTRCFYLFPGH

Adenosine receptor A1 = target: T4, Adenosine receptor A1 (Homo sapiens, UniProt P30542); format: cell membranes, CHO, Membrane; conditions: cho;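 also: radioligand binding assay at the adenosine A1 receptor, with DPCPX serving as the labelled ligand; in other assays of this panel Not Active means under 50% inhibition at 10 µM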
T4 sequence (P30542 whole entry): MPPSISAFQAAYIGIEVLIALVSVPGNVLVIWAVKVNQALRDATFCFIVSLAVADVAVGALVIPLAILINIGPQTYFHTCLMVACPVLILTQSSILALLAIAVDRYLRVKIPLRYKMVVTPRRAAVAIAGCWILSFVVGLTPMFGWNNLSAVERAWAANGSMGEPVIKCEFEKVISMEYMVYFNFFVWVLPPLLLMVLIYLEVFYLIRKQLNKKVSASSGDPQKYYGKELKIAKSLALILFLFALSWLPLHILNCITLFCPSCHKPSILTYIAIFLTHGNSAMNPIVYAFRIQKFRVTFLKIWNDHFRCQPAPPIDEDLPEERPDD

Chain of Platelet-activating factor receptor (P25105 whole entry): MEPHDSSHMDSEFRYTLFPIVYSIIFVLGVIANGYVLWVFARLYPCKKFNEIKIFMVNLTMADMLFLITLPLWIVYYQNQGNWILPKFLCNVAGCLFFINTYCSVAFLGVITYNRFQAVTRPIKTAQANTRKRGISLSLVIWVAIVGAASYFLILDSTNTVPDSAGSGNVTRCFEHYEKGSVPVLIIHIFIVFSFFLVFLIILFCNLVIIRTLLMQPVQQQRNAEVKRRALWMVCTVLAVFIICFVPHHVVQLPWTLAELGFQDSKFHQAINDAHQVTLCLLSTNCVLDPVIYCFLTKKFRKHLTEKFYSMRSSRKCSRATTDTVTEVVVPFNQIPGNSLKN

C[C@H]1C[C@H]2[C@@H]3CCC4=CC(=O)C=C[C@]4(C)[C@@]3(F)[C@@H](O)C[C@]2(C)[C@@]1(O)C(=O)CO [BETAMETHASONE]
Not Active: IC50 [1] | Ki [1] | IC50 [2] | Ki [2] | IC50 [3] | IC50 [4] | IC50 (Progesterone receptor) | IC50 (Caspase-1) | IC50 (Adenosine receptor A1)

C[C@H](C(=O)O)c1ccc2oc(-c3ccc(F)cc3)nc2c1 [FLUNOXAPROFEN]
Not Active: IC50 [1] | Ki [1] | IC50 [2] | Ki [2] | IC50 [3] | IC50 [4] | IC50 (Progesterone receptor) | IC50 (Caspase-1) | IC50 (Adenosine receptor A1)

C[C@@H]1[C@H](O)[C@@H](C)/C=C/C=C/C=C/C=C/C=C/C=C/C=C/[C@H](O[C@@H]2O[C@H](C)[C@@H](O)[C@H](N)[C@@H]2O)C[C@@H]2O[C@](O)(C[C@@H](O)C[C@@H](O)[C@H](O)CC[C@@H](O)C[C@@H](O)CC(=O)O[C@H]1C)C[C@H](O)[C@H]2C(=O)O [AMPHOTERICIN B]
Not Active: IC50 [1] | Ki [1] | IC50 [2] | Ki [2] | IC50 [3] | IC50 [4] | IC50 (Progesterone receptor) | IC50 (Caspase-1) | IC50 (Adenosine receptor A1)

COc1cc(NC(C)CCCN)c2ncccc2c1 (stereo not given) [PRIMAQUINE]
Not Active: IC50 [1] | Ki [1] | IC50 [2] | Ki [2] | IC50 [3] | IC50 [4] | IC50 (Progesterone receptor) | IC50 (Caspase-1) | IC50 (Adenosine receptor A1)

COc1cc(/C=C/C(=O)O)ccc1O [FERULATE]
Not Active: IC50 [1] | Ki [1] | IC50 [2] | Ki [2] | IC50 [3] | IC50 [4] | IC50 (Progesterone receptor) | IC50 (Caspase-1) | IC50 (Adenosine receptor A1)

CNC[C@H](O)c1ccc(O)c(O)c1 [EPINEPHRINE]
Not Active: IC50 [1] | Ki [1] | IC50 [2] | Ki [2] | IC50 [3] | IC50 [4] | IC50 (Progesterone receptor) | IC50 (Caspase-1) | IC50 (Adenosine receptor A1)

CCN1CCN(C(=O)N[C@@H](C(=O)N[C@@H]2C(=O)N3[C@@H]2SC(C)(C)[C@@H]3C(=O)O)c2ccccc2)C(=O)C1=O [PIPERACILLIN]
Not Active: IC50 [1] | Ki [1] | IC50 [2] | Ki [2] | IC50 [3] | IC50 [4] | IC50 (Progesterone receptor) | IC50 (Caspase-1) | IC50 (Adenosine receptor A1)

C=CCN1CC[C@]23c4c5ccc(O)c4O[C@H]2/C(=N/N=C2\CC[C@@]4(O)[C@H]6Cc7ccc(O)c8c7[C@@]4(CCN6CC=C)[C@H]2O8)CC[C@@]3(O)[C@H]1C5 [NALOXONAZINE]
Not Active: IC50 [1] | Ki [1] | IC50 [2] | Ki [2] | IC50 [3] | IC50 [4] | IC50 (Progesterone receptor) | IC50 (Caspase-1) | IC50 (Adenosine receptor A1)

c1ccc2c(c1)Nc1ccccc1S2 [PHENOTHIAZINE]
Not Active: IC50 [1] | Ki [1] | IC50 [2] | Ki [2] | IC50 [3] | IC50 [4] | IC50 (Progesterone receptor) | IC50 (Caspase-1) | IC50 (Adenosine receptor A1)

Cl.NC[C@H]1CC[C@H](C(=O)Oc2ccc(CCC(=O)O)cc2)CC1 [CETRAXATE HYDROCHLORIDE]
Not Active: IC50 [1] | Ki [1] | IC50 [2] | Ki [2] | IC50 [3] | IC50 [4] | IC50 (Progesterone receptor) | IC50 (Caspase-1) | IC50 (Adenosine receptor A1)
